In article PMC3528769, “Comparative Study of the Fatty Acid Binding Process of a New FABP from Cherax quadricarinatus by Fluorescence Intensity, Lifetime and Anisotropy” (PLoS ONE, 2012):
Several values for one entry are separate records, joined by “and”; a condition that tells them apart may be missing. Identical values can stand only once. Values belong to the molecule of their own block, whether it stands above or below them.

Tests used:
Cq-FABP [1] = target: T1, Cq-FABP (Cherax quadricarinatus, UniProt L0I6Z9); assay: Time-resolved Trp fluorescence lifetime (single-photon counting) with ANS and PA; assay type: binding; conditions: for FRET efficiency: from lifetimes; for Δ%FRET,max based on lifetime values: without versus with 70 µM PA
T1 sequence (L0I6Z9 entry or part of it): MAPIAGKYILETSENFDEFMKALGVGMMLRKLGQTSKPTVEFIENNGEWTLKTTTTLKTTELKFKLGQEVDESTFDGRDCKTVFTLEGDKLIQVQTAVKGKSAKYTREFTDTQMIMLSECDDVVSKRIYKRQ
Protocol: The distribution of fluorescence lifetimes of tryptophan was determined by monitoring the intensity decay, I(t), using the single-photon counting technique [27]–[31]. Briefly, the excitation light pulse source was a Ti:sapphire laser (Mai Tai femtosecond laser, Spectra Physics, Mountain View, CA, USA) associated with a third harmonic generator tuned to 296 nm. The laser frequency was reduced from 80 to 8 MHz using a pulse picker (Spectra Physics). Fluorescence emission was detected by a microchannel plate photomultiplier (Hamamatsu model R3809U-05) through a monochromator (ARC SpectraPro-150) set at 340 nm (Δλ = 15 nm) with the emission polarizer set at the magic angle (54.7°). A time-correlated single-photon counting SPC-430 card (Becker–Hickl, Berlin, Germany) was used for the acquisition. Experiments were performed at 25°C using 5 µM Cq-FABP in buffer C. The average fluorescence lifetime values (τm), as reported in Table 1, were calculated from the lifetime distributions recovered by the maximum entropy method, [29], [32]. For example, Cq-FABP alone was characterized by three fluorescence lifetimes (τ1 = 0.6 ns (6%), τ2 = 2.67 ns (53%), τ3 = 3.89 (41%); τm = 3.04 ns).

FABP4 = target: FABP4; set-up: method as in PMID 11827549; conditions: ref [6]; read-out: Kd of ANS; cited from earlier work
Cq-FABP [2] = target: T1, Cq-FABP; assay: Steady-state FRET between the single Trp (W49) and ANS, Trp quenching and recovery by PA; assay type: binding
Protocol: (§1) Fluorescence emission spectra were measured at 25°C on a Cary-Eclipse spectrofluorimeter (Varian, CA, USA) equipped with a thermostated cell holder, using solutions (70 µl) placed in microcuvettes (pathlength, 0.3 cm). The binding of non-fluorescent fatty acids (PA, OA, LA, EPA and DHA) to Cq-FABP was measured indirectly by equilibrium displacement experiments using ANS as a fluorescent probe, either by measuring the fluorescence emission of ANS or by measuring the FRET between tryptophan and ANS, resulting in the quenching of donor fluorescence. The excitation wavelength was then set at 296 or 350 nm for tryptophan or ANS, respectively; the slit widths and PMT voltage were adjusted to optimize the fluorescence signal at 25°C. For titration experiments, the fluorescence emission spectrum of tryptophan or ANS was measured and the integrated fluorescence signal of tryptophan (315–360 nm) or ANS (440–600 nm) was calculated. For samples containing high concentrations of ANS, the inner-filter effect was not negligible and was corrected. UV-visible absorption spectra were carried out on a Uvikon XL spectrophotometer.

Cq-FABP [3] = target: T1, Cq-FABP; assay: ANS fluorescence intensity titration and equilibrium displacement of ANS by fatty acids; assay type: binding
Protocol: as §1
The equilibrium dissociation constant (Kd,FA) relative to the binding of fatty acids (FA) to Cq-FABP was determined by competition experiments using ANS displacement and linear regression of the following relationship: [drawing 1] (1) where Kd,ANS is the dissociation constant relative to the binding of ANS to the fatty acid binding site, Kd ^app ,ANS is the apparent dissociation constant of ANS obtained in the presence of a given fatty acid concentration.

Cq-FABP [4] = target: T1, Cq-FABP; assay: BODIPY-C16 steady-state fluorescence anisotropy titration and competition; assay type: binding; conditions: for IC50: read-out: IC50 (displaces 50% of BODIPY-C16 from the fatty acid binding site)
Protocol: The binding of 4,4-difluoro-5, 7-dimethyl-4-bora-3a, 4a-diaza-s-indacene-3-hexadecanoic acid (BODIPY-C16) to Cq-FABP was investigated by measuring the steady-state fluorescence anisotropy parameter using a Beacon instrument (PanVera, Madison, USA), in a cell thermostatically held at 25°C. The excitation and emission bandpass filters were centered at 488 nm (±6 nm) and 525 nm (±15 nm), respectively. Titration experiments were performed in buffer C (supplemented with 10% DMSO (v/v)) by maintening a constant concentration of BODIPY-C16 (200 nM) and by adding increasing concentrations of Cq-FABP. Using a vertical direction for the polarized excitation source, the steady-state fluorescence anisotropy (r) was calculated according to: [drawing 3] (3) where IV and IH correspond to the parallel (vertical) and perpendicular (horizontal) fluorescence emission intensity components, respectively. The fraction of BODIPY-C16/Cq-FABP complexes (i.e. the fraction of BODIPY-C16 bound to Cq-FABP), fb, was calculated using the following relationship: [drawing 4] (4) where r is the measured fluorescence anisotropy value, rf and rb correspond to the fluorescence anisotropy values of free BODIPY-C16 (ligand in the free state, measured in the absence of Cq-FABP) and Cq-FABP-bound BODIPY-C16 (ligand in the bound state, corresponding to the maximum anisotropy value found at the plateau), respectively. […] The Kd characterizing the BODIPY-C16/Cq-FABP complex (Kd,C16) was calculated by fitting the plot of fb versus [Cq-FABP] using the Graphpad Prism 5.0 software.
The fluorescence anisotropy-based assay was also used in competition experiments to calculate the Kd values (Kd,FA) characterizing non-fluorescent fatty acids. The measurement of the apparent Kd value characterizing the BODIPY-C16/Cq-FABP complex (Kd ^app ,C16) under different concentration conditions for the non-fluorescent FA allows the calculation of Kd,FA according to: [drawing 5] (5) where Kd,C16 corresponds to the Kd characterizing the BODIPY-C16/Cq-FABP complex (in the absence of any non-fluorescent FA) and Kd ^app ,C16 corresponds to the apparent dissociation constant obtained for a given concentration of non-fluorescent FA. The calculation of Kd,FA was also performed in an independent manner by measuring the IC50 value characterizing each non-fluorescent FA. In this approach, the number of complexes corresponding to [C16] = 200 nM and [Cq-FABP] = 5 µM was varied by increasing the concentration of non-fluorescent FA. The IC50 value corresponds to the concentration of non-fluorescent FA that displaces 50% of C16 from the fatty acid binding site of Cq-FABP and is related to Kd,FA through the Cheng-Prusoff relationship: [drawing 6] (6)

Cq-FABP [5] = target: T1, Cq-FABP; assay: DAUDA fluorescence intensity enhancement; assay type: binding; conditions: 5 µM Cq-FABP versus free DAUDA (Fig. S3A)
Text: Cis-parinaric acid and DAUDA were characterized by fluorescence emission in the 380–500 nm region (λmax,em: 410 nm) and in the 480–650 nm region (λmax,em: 540 nm), respectively (excitation wavelengths were set at 320 or 335 nm for cis-parinaric acid or DAUDA, respectively). The fluorescence intensity enhancement upon binding to Cq-FABP was monitored on a Cary-Eclipse spectrofluorimeter as indicated above. All the fluorescence emission intensities were corrected for the inner-filter effect. The emission intensity of a given fluorophore in the presence of Cq-FABP was also systematically corrected for the emission intensity of the free fluorophore. The calculation of Kd,FA was performed by measuring the IC50 value (inhibition concentration 50%) characterizing each non-fluorescent FA. As DAUDA poorly binds to Cq-FABP (see results section), only cis-parinaric acid (CPA) was used for measuring IC50 values. Titration and equilibrium displacement experiments using CPA were performed in buffer C (supplemented with 10% DMSO (v/v)). For the determination of IC50 values, the number of complexes corresponding to [CPA] = 7 µM and [Cq-FABP] = 5 µM was varied by increasing the concentration of non-fluorescent FA. […]

Cq-FABP [6] = target: T1, Cq-FABP; assay: cis-Parinaric acid fluorescence intensity titration and competitive displacement; assay type: binding; conditions: calculated from the IC50 values (Eq. 2) using the fluorescence intensity of cis-parinaric acid; 7 µM CPA, 5 µM Cq-FABP; read-out: Kd,FA
Text: Cis-parinaric acid and DAUDA were characterized by fluorescence emission in the 380–500 nm region (λmax,em: 410 nm) and in the 480–650 nm region (λmax,em: 540 nm), respectively (excitation wavelengths were set at 320 or 335 nm for cis-parinaric acid or DAUDA, respectively). The fluorescence intensity enhancement upon binding to Cq-FABP was monitored on a Cary-Eclipse spectrofluorimeter as indicated above. All the fluorescence emission intensities were corrected for the inner-filter effect. The emission intensity of a given fluorophore in the presence of Cq-FABP was also systematically corrected for the emission intensity of the free fluorophore. The calculation of Kd,FA was performed by measuring the IC50 value (inhibition concentration 50%) characterizing each non-fluorescent FA. As DAUDA poorly binds to Cq-FABP (see results section), only cis-parinaric acid (CPA) was used for measuring IC50 values. Titration and equilibrium displacement experiments using CPA were performed in buffer C (supplemented with 10% DMSO (v/v)). For the determination of IC50 values, the number of complexes corresponding to [CPA] = 7 µM and [Cq-FABP] = 5 µM was varied by increasing the concentration of non-fluorescent FA. The IC50 value corresponds to the concentration of non-fluorescent FA that displaces 50% of CPA from the fatty acid binding site of Cq-FABP and is related to Kd,FA through the Cheng-Prusoff relationship: [drawing 2] (2)

[7] = 200 nM BODIPY-C16, 5 µM Cq-FABP

SMILES: O=S(=O)(O)c1cccc2cccc(Nc3ccccc3)c12 [ANS, 8-Anilino-1-naphthalenesulfonate]
Average fluorescence Lifetime, τm (Cq-FABP [1]; 5 µM Cq-FABP + 5 µM ANS): 2.85 ns
FRET efficiency (Cq-FABP [1]; 5 µM Cq-FABP + 5 µM ANS): 6.2%
Average fluorescence Lifetime, τm (Cq-FABP [1]; 5 µM Cq-FABP + 10 µM ANS): 2.75 ns
FRET efficiency (Cq-FABP [1]; 5 µM Cq-FABP + 10 µM ANS): 9.5%
Average fluorescence Lifetime, τm (Cq-FABP [1]; 5 µM Cq-FABP + 50 µM ANS): 2.39 ns
FRET efficiency (Cq-FABP [1]; 5 µM Cq-FABP + 50 µM ANS): 21.4%
Average fluorescence Lifetime, τm (Cq-FABP [1]; 5 µM Cq-FABP + 200 µM ANS): 2.00 ns
FRET efficiency (Cq-FABP [1]; 5 µM Cq-FABP + 200 µM ANS): 34.2%
Δ%FRET,max based on lifetime values (Cq-FABP [1]; [ANS] = 50 µM): 12.5%
Δ%FRET,max based on lifetime values (Cq-FABP [1]; [ANS] = 200 µM): 11.2%
Kd (FABP4): 1.7 µM
Kd (Cq-FABP [2]; from Δ%FRET versus [ANS] (Fig. 4D), binding to fatty acid binding site only, read-out: Kd,ANS): 27.6 µM
Kd (Cq-FABP [2]; quenching of Trp steady-state emission by ANS, specific plus non specific binding (Fig. 4A), read-out: apparent Kd of ANS): ~100 µM
Δ%FRET,max (plateau) (Cq-FABP [2]; steady-state fluorescence intensities, amplitude between [PA]0 and [PA]+∞ (Fig. 4D)): 10%
Kd (Cq-FABP [3]; average of the Kd,ANS values from the intensity and FRET procedures, read-out: average Kd,ANS): 27.9 µM
Kd (Cq-FABP [3]; direct titration, 5 µM Cq-FABP, 25°C, after removing free ANS and non specific contributions (Fig. 2B), read-out: Kd,ANS): 30 µM and ~30 µM
Kd (Cq-FABP [3]; from displacement amplitude ΔI by PA plotted against [ANS] (Fig. 2D), 5 µM Cq-FABP, read-out: Kd,ANS): 26 µM
Kd (Cq-FABP [3]; y-intercept of Kd app,ANS versus [PA] linear regression (Fig. 3B), read-out: Kd,ANS): 27.8 µM

Kd (Cq-FABP [4]; direct titration, 200 nM BODIPY-C16, increasing Cq-FABP, 25°C, 10% DMSO, read-out: Kd,C16): 3.1 µM
SMILES: Cc1cc(C)n2c1C=C1C=CC(CCCCCCCCCCCCCCCC(=O)O)=[N+]1[B-]2(F)F [BODIPY-C16, 4,4-difluoro-5,7-dimethyl-4-bora-3a, 4a-diaza-s-indacene-3-hexadecanoic acid, reference compound]

IC50 (Cq-FABP [4]; [7]): 263 µM
Kd (Cq-FABP [4]; from IC50 according to the Cheng-Prusoff relationship, 200 nM BODIPY-C16, 5 µM Cq-FABP, read-out: apparent Kd of Cq-FABP/DAUDA complex): ~250 µM
binding of DAUDA by fluorescence enhancement (Cq-FABP [5]): does not bind or only poorly binds
SMILES: CN(C)c1cccc2c(S(=O)(=O)NCCCCCCCCCCC(=O)O)cccc12 [DAUDA, 11-((5-dimethylaminonaphthalene-1-sulphonyl)amino)-undecanoic acid, reference compound]

IC50 (Cq-FABP [4]; [7]): 7.67 µM
Kd (Cq-FABP [4]; calculated from the IC50 values, using Eq. 6, 200 nM BODIPY-C16, 5 µM Cq-FABP, read-out: Kd,FA): 7.4 ± 0.7 µM
Kd (Cq-FABP [4]; calculated from the Kd app,C16 values, using Eq. 5, 200 nM BODIPY-C16, read-out: Kd,FA): 6.6 ± 0.5 µM
Kd (Cq-FABP [6]): 4.4 ± 0.8 µM
Kd (Cq-FABP [3]; calculated from equilibrium displacement experiments using the fluorescence intensity of ANS (Eq. 1), read-out: Kd,FA): 5.8 ± 0.3 µM
SMILES: CC/C=C\C/C=C\C/C=C\C/C=C\C/C=C\C/C=C\CCC(=O)O [DHA, cis-4,7,10,13,16,19-docosahexaenoic acid]
